Measured values reported in patent US12578273B2, “Ph-reversible leuco-BODIPY probe for in situ visualization of extracellular vesicles and their secretion from living cells” (The Chinese University of Hong Kong, priority 2021, dated 2026).

Columns and labels:
Test in all cases: Estimation of the fluorescence signal per EV
Format in all cases: cell-based
Settings in all cases: 5 μM leuco-BODIPY, 30 min, excitation 584 nm, emission 612 nm, net fluorescence divided by number of EVs (NTA)
[1] = system: EVs secreted by A549 cells
Method: (§1) Cells were pre-seeded in a 96-well plate in complete DMEM without phenol red. During the experiment, 200 μL of either fresh complete DMEM without phenol red or 5 μM leuco-BODIPY formulated in fresh complete DMEM without phenol red was added to the cells. After 30 min, the medium was collected and centrifuged for 10 min at 200×g to remove any dye-stained cell debris. The fluorescence signal in the medium was measured by a fluorescent plate reader (ThermoFisher Fluoroskan Ascent) at an excitation wavelength of 584 nm and emission wavelength of 612 nm. The net fluorescence in the dye-treated EV sample was determined by subtracting the background fluorescence of the untreated EV sample from the fluorescence of the dye-treated EV sample. Complete DMEM without phenol red was also used as a control to determine the background fluorescence of the blank culture medium. After the microplate reader experiment, each EV sample was made up to a total of 1 mL by adding DMEM without phenol red, followed by injection into a Malvern Nanosight NS500 instrument for measuring the total number of EVs in the sample. […] The fluorescence signal per EV was estimated by dividing (1) the net fluorescence (with background subtraction) of the EV sample as measured by the microplate reader by (2) the number of EVs in the sample as measured by NTA.
(§2) Moreover, we incubated the three cell types with our probe for 30 min, isolated the EVs secreted to the culture medium, centrifuged the collected medium to remove any dye-stained cell fragments, and confirmed the detection of fluorescence in the isolated EVs (Table 1). By contrast, for the EVs isolated from the same cell types under the same culture conditions but without treatment by our probe, the fluorescence detected was at the background level of blank culture medium.
(§3) Table 1: Estimate of the number of signals per EV. The fluorescence signal per EV is expressed in arbitrary units (a.u.), a relative value that highly depends on pH, dye concentration, and laser power. […]

[2] = system: EVs secreted by HEK293 cells
Method: as §1, §2, §3

[3] = system: EVs secreted by HeLa cells
Method: as §1, §2, §3

## CCOC(=O)C(=Cc1ccc2n1[B-](F)(F)n1c(C=C(C(=O)OCC)C(=O)OCC)ccc1C2(OC)c1ccncc1)C(=O)OCC [leuco-BODIPY]
[1]
  Mean fluorescence signal per EV: 4.17 × 10^−7 a.u.
[2]
  Mean fluorescence signal per EV: 1.67 × 10^−6 a.u.
[3]
  Mean fluorescence signal per EV: 4.63 × 10^−7 a.u.
